Reference: US7750148B2, “Intermediate compound for the production of β-lactamase-resistant cephalosporin ester compounds and salts thereof” (Zhejiang Yongning Pharmaceutical Factory, priority 2003, dated 2010)

Assays:
Experiment in all cases: In vitro antibacterial activity (MIC, agar double dilution)
Type in all cases: cell-based
[1] = test system: Citrobacter 48017
Excerpt: (§1) tested samples YR-1, YR-2 were the ones prepared in example 1 and example 5 respectively, control samples were cefetamet sodium (CTM), cefuroxime sodium (CRX), cefetamet sodium+sulbactam sodium (CTM+SBT) (molar ratio 1:1), cefuroxime+sulbactam sodium (CRX+SBT) (molar ratio 1:1). All control samples (have been sold on the market) were supplied by Zhejiang Yongning pharmaceutical factory.
(§2) Staphylococcus aureus 26003, Diplococcus lanceolatus 31002, E. coli 44102, Shigella sonnet 51081, Shigella bogdii 51313, Shigella flexneri 51573, Proteus mirabilis 49005, Bacillus proteus 49085, Proteus morganii 49086, Pseudomonas aeruginosa 10124, Bacillus pneumoniae 46101, Salmonella enteritidis 50041, Salmonella typhi 50097, Citrobacter 48017, Candida ciferii 41002 were supplied by Shanghai Hygienic and Antiepidemic Station.
(§3) Mueller-Hinton Agar (M.H) culture medium, batch number 20040528 (Shanghai Reagent Supply Research Center, China Diarrhea Disease Control).
(§4) Adopted agar double dilution, inoculated using multipoint inoculator, inoculated 10^5CFU/ML each point, cultured for 24 hours at 37° C., observed and recorded the results, set the least concentration of the antibacterial drug that can inhibit bacteria growth as the minimum inhibitory concentration (MIC).

[2] = test system: E. coli 44102
Excerpt: as §1, §2, §3, §4

[3] = test system: Proteus mirabilis 49005
Excerpt: as §1, §2, §3, §4

[4] = test system: Salmonella enteritidis 50041
Excerpt: as §1, §2, §3, §4

[5] = test system: Salmonella typhi 50097; conditions: 10^5CFU/ML each point, 24 hours at 37° C.
Excerpt: as §1, §2, §3, §4

[6] = test system: Staphylococcus aureus 26003
Excerpt: as §1, §2, §3, §4

| Compound | MIC of the drug to bacteria ([1]; Citrobacter 48017, 10^5CFU/ML each point, 24 hours at 37° C.) [µg/mL] | MIC of the drug to bacteria ([2]; E. coli 44102, 10^5CFU/ML each point, 24 hours at 37° C.) [µg/mL] | MIC of the drug to bacteria ([3]; Proteus mirabilis 49005, 10^5CFU/ML each point, 24 hours at 37° C.) [µg/mL] | MIC of the drug to bacteria ([4]; Salmonella enteritidis 50041, 10^5CFU/ML each point, 24 hours at 37° C.) [µg/mL] | MIC of the drug to bacteria [5] [µg/mL] | MIC of the drug to bacteria ([6]; Staphylococcus aureus 26003, 10^5CFU/ML each point, 24 hours at 37° C.) [µg/mL] | MIC ([1]; Citrobacter, 48017, 24 h, read-out: MIC of the drug to bacteria) [µg/mL] | MIC ([2]; Escherichia coli, 44102, 24 h, read-out: MIC of the drug to bacteria) [µg/mL] | MIC ([3]; Proteus mirabilis, 49005, 24 h, read-out: MIC of the drug to bacteria) [µg/mL] | MIC ([4]; Salmonella enterica, ENTERITIDIS, 24 h, read-out: MIC of the drug to bacteria) [µg/mL] | MIC ([5]; Salmonella enterica, read-out: MIC of the drug to bacteria) [µg/mL] | MIC ([6]; Staphylococcus aureus, 26003, 24 h, read-out: MIC of the drug to bacteria) [µg/mL] |
| --- | --- | --- | --- | --- | --- | --- | --- | --- | --- | --- | --- | --- |
| 5-thia-1-aza-bicyclo [4,2,0] octane-2-ene-2-carboxylic acid, 7-[[(2-amino-4-thiazolyl) (methoxy imine) acetyl]amino]-3-methyl-8-oxo-, [[3,3-dimethyl-4,4-dioxy-7-oxo-4-thia-1-aza-bicyclo [3,2,0] heptane-2-group]carbonyloxy]oxy]methyl ester [YR-1] | 1.56 | 1.56 | 0.098 | 1.56 | 1.56 | 100 | – | – | – | – | – | – |
| CON=C(C(=O)NC1C(=O)N2C(C(=O)OCOC(=O)C3N4C(=O)CC4S(=O)(=O)C3(C)C)=C(COC(N)=O)CSC12)c1ccco1 (stereo not drawn) [YR-2, 5-thia-1-aza-bicyclo [4,2,0] octane-2-ene-2-carboxylic acid, 7-[[(2-furane (methoxy imine)acetyl)amino]-3-[[(aminocarbonyloxy)oxy]methyl]-8-oxo-, [[3,3-dimethyl-4,4-dioxy-7-oxo-4-thia-1-aza-bicyclo[3,2,0]heptane-2-group]carbonyloxy]oxy]methyl ester] | – | – | – | – | – | – | 3.13 | 12.5 | 3.13 | 12.5 | 6.25 | 6.25 |
